# From patent US9585892B2, “Solid forms comprising N-(5-tert-butyl-isoxazol-3-yl)-N′-{4-[7-(2-morpholin-4-yl-ethoxy)imidazo[2,1-b][1,3]benzothiazol-2-yl]phenyl}urea, compositions thereof, and uses therewith” (AMBIT BIOSCIENCES CORPORATION, priority 2007, dated 2017)
# Entries after “also recorded” stand apart in the source; their conditions may differ. Where a name gives a salt, the structure may show the parent alone.
# Test: Stress experiments (temperature or relative humidity, XRPD after stress)
# Type: physicochemical
# Protocol: Stress Experiments. Solids were stressed under different temperature or relative humidity (RH) environments for a measured time period. Specific RH values were achieved by placing the sample inside sealed chambers containing saturated salt solutions. The salt solutions were selected and prepared following an ASTM standard procedure. Samples were analyzed by XRPD immediately after removal from the stress environment.
# X-ray powder diffraction analyses were performed on an Inel XRG-3000 diffractometer, equipped with a curved position-sensitive detector with a […] of 120°. Real time data was collected using Cu Kα radiation starting at approximately 4 ° 2θ at a resolution of 0.03 ° 2θ. The tube voltage and amperage were set to 40 kV and 30 mA, respectively. […] Samples were prepared for analysis by packing them into thin-walled glass capillaries. Each capillary was mounted onto a goniometer head that is motorized to permit spinning of the capillary during data acquisition. Instrument calibration was performed daily using a silicon reference standard.
# [1] = 75% RH, ambient temperature, 5 days
# [2] = 75% RH, ambient temperature, 3 days
# [3] = 75% RH, ambient temperature, 3 days, listed as Amorphous
smiles,measurement,setting,value
"CC(C)(C)c1cc(NC(=O)Nc2ccc(-c3cn4c(n3)sc3cc(OCCN5CCOCC5)ccc34)cc2)no1 [Form B of the besylate salt of Compound B1] [N-(5-tert-butyl-isoxazol-3-yl)-N′-{4-[7-(2-morpholin-4-yl-ethoxy)imidazo[2,1-b][1,3]benzothiazol-2-yl]phenyl}urea]",deliquescence upon storage,"75% RH, 7 days",does not deliquesce; also recorded: did not deliquesce
"CC(C)(C)c1cc(NC(=O)Nc2ccc(-c3cn4c(n3)sc3cc(OCCN5CCOCC5)ccc34)cc2)no1 [Form B of the esylate salt of Compound B1] [N-(5-tert-butyl-isoxazol-3-yl)-N′-{4-[7-(2-morpholin-4-yl-ethoxy)imidazo[2,1-b][1,3]benzothiazol-2-yl]phenyl}urea]",deliquescence upon storage,"75% RH, 7 days",does not deliquesce; also recorded: did not deliquesce
"CC(C)(C)c1cc(NC(=O)Nc2ccc(-c3cn4c(n3)sc3cc(OCCN5CCOCC5)ccc34)cc2)no1 [Form F of the HCl salt of Compound B1, N-(5-tert-butyl-isoxazol-3-yl)-N′-{4-[7-(2-morpholin-4-yl-ethoxy)imidazo[2,1-b][1,3]benzothiazol-2-yl]phenyl}urea]",XRPD Result after stress,"Oven: 80° C., 3 days","substantially disordered, but which retains some Form F content"
same,XRPD Result after stress,"Oven: 80° C., 3 days, listed as F",Disordered + F
"CC(C)(C)c1cc(NC(=O)Nc2ccc(-c3cn4c(n3)sc3cc(OCCN5CCOCC5)ccc34)cc2)no1 [Form C of the sulfate salt of Compound B1] [N-(5-tert-butyl-isoxazol-3-yl)-N′-{4-[7-(2-morpholin-4-yl-ethoxy)imidazo[2,1-b][1,3]benzothiazol-2-yl]phenyl}urea]",deliquescence upon storage,"75% RH, 7 days",does not deliquesce; also recorded: did not deliquesce
"CC(C)(C)c1cc(NC(=O)Nc2ccc(-c3cn4c(n3)sc3cc(OCCN5CCOCC5)ccc34)cc2)no1 [Form A of the edisylate salt of Compound B1] [N-(5-tert-butyl-isoxazol-3-yl)-N′-{4-[7-(2-morpholin-4-yl-ethoxy)imidazo[2,1-b][1,3]benzothiazol-2-yl]phenyl}urea]",deliquescence upon storage,"75% RH, 7 days",does not deliquesce; also recorded: did not deliquesce
"CC(C)(C)c1cc(NC(=O)Nc2ccc(-c3cn4c(n3)sc3cc(OCCN5CCOCC5)ccc34)cc2)no1 [Form A of the napsylate salt of Compound B1] [N-(5-tert-butyl-isoxazol-3-yl)-N′-{4-[7-(2-morpholin-4-yl-ethoxy)imidazo[2,1-b][1,3]benzothiazol-2-yl]phenyl}urea]",deliquescence upon storage,"75% RH, 7 days",does not deliquesce; also recorded: did not deliquesce
"CC(C)(C)c1cc(NC(=O)Nc2ccc(-c3cn4c(n3)sc3cc(OCCN5CCOCC5)ccc34)cc2)no1 [Form B of the mesylate salt of Compound B1] [N-(5-tert-butyl-isoxazol-3-yl)-N′-{4-[7-(2-morpholin-4-yl-ethoxy)imidazo[2,1-b][1,3]benzothiazol-2-yl]phenyl}urea]",deliquescence upon storage,"75% RH, 4 days",does not deliquesce; also recorded: did not deliquesce
"CC(C)(C)c1cc(NC(=O)Nc2ccc(-c3cn4c(n3)sc3cc(OCCN5CCOCC5)ccc34)cc2)no1 [Form B of the tosylate salt of Compound B1] [N-(5-tert-butyl-isoxazol-3-yl)-N′-{4-[7-(2-morpholin-4-yl-ethoxy)imidazo[2,1-b][1,3]benzothiazol-2-yl]phenyl}urea]",deliquescence upon storage,[1],does not deliquesce; also recorded: did not deliquesce
"CC(C)(C)c1cc(NC(=O)Nc2ccc(-c3cn4c(n3)sc3cc(OCCN5CCOCC5)ccc34)cc2)no1 [Form D of the HCl salt of Compound B1, N-(5-tert-butyl-isoxazol-3-yl)-N′-{4-[7-(2-morpholin-4-yl-ethoxy)imidazo[2,1-b][1,3]benzothiazol-2-yl]phenyl}urea]",XRPD Result after stress,"Oven: 80° C., 3 days",Form D
"CC(C)(C)c1cc(NC(=O)Nc2ccc(-c3cn4c(n3)sc3cc(OCCN5CCOCC5)ccc34)cc2)no1 [Form B of the napsylate salt of Compound B1] [N-(5-tert-butyl-isoxazol-3-yl)-N′-{4-[7-(2-morpholin-4-yl-ethoxy)imidazo[2,1-b][1,3]benzothiazol-2-yl]phenyl}urea]",deliquescence upon storage,"75% RH, 7 days",does not deliquesce; also recorded: did not deliquesce
"CC(C)(C)c1cc(NC(=O)Nc2ccc(-c3cn4c(n3)sc3cc(OCCN5CCOCC5)ccc34)cc2)no1 [N-(5-tert-butyl-isoxazol-3-yl)-N′-{4-[7-(2-morpholin-4-yl-ethoxy)imidazo[2,1-b][1,3]benzothiazol-2-yl]phenyl}urea]",XRPD Result after stress,[2],remains unchanged
same,deliquescence upon storage,[2],does not deliquesce; also recorded: did not deliquesce
same,water corresponding to the weight gain,[2],about 4.3 molar equivalents of water
same,weight gain,[2],about 12.3%
same,XRPD Result after stress,[3],Amorphous
same,weight gain,[3],"white solid, irregular particles, 11.8%"
same,XRPD Result after stress,"Oven: 40° C., 8 days",remains unchanged
same,XRPD Result after stress,"Oven: 40° C., 8 days, listed as Amorphous",Amorphous
"CC(C)(C)c1cc(NC(=O)Nc2ccc(-c3cn4c(n3)sc3cc(OCCN5CCOCC5)ccc34)cc2)no1 [Form A of the HBr salt of Compound B1, N-(5-tert-butyl-isoxazol-3-yl)-N′-{4-[7-(2-morpholin-4-yl-ethoxy)imidazo[2,1-b][1,3]benzothiazol-2-yl]phenyl}urea]",deliquescence upon storage,"75% RH, 4 days",does not deliquesce; also recorded: did not deliquesce
"CC(C)(C)c1cc(NC(=O)Nc2ccc(-c3cn4c(n3)sc3cc(OCCN5CCOCC5)ccc34)cc2)no1 [Form A of the mesylate salt of Compound B1] [N-(5-tert-butyl-isoxazol-3-yl)-N′-{4-[7-(2-morpholin-4-yl-ethoxy)imidazo[2,1-b][1,3]benzothiazol-2-yl]phenyl}urea]",deliquescence upon storage,[1],does not deliquesce; also recorded: did not deliquesce
